Laboratory results reported in patent US20250154163A1, “Pyrimidinone-Containing 17-Beta-Hydroxysteroid Dehydrogenase Type 13 Inhibitors” (ENANTA PHARMACEUTICALS, INC., priority 2023, published 2025).

Columns and labels:
[1] = target: T1, human HSD17β13 (stable HEK293T cell line overexpressing human HSD17β13) (Homo sapiens, UniProt Q7Z5P4); assay: HSD17β13 inhibitor cell-based screening assay (conversion of estradiol-d2 to estrone-d2 by RF-MS); conditions: conversion of estradiol-d2 to estrone-d2 after 24 hours
T1 construct: expressed in transfected cells
T1 sequence (Q7Z5P4 20-300): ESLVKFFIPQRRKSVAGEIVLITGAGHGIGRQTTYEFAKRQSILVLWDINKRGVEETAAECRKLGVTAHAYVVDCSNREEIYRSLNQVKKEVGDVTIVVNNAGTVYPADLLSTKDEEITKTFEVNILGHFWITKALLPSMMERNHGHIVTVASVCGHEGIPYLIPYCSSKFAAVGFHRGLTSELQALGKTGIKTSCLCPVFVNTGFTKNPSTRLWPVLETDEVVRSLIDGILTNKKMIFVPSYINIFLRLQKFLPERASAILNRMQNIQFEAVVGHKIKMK
Summary of the method: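 Cellular IC50 is based on 24-h conversion of estradiol-d2 (5 μM final) to estrone-d2, measured by RF-MS in acetonitrile-precipitated supernatants. Assay uses human HSD17β13-overexpressing HEK293T cells (7.5E3/well, 1% charcoal/dextran FBS MEM), with compounds dosed as a 9-point 1:3 series to 10 μM final. ATPlite luminescence on overexpressing and parent lines measured viability.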

[2] = system: human precision cut lung slices from a donor with idiopathic pulmonary fibrosis; assay: Human precision cut lung slice (PCLS) culture, donor with idiopathic pulmonary fibrosis; assay type: cell-based; conditions: IPF donor PCLS; FIG. 2b
Procedure: Human PCLS were generated from lung explants of patients with pulmonary fibrosis (donor ID #221028) or normal donor (donor ID #220730). Cryopreserved hPCLSs were obtained from Institute for In Vitro Sciences (IIVS) and maintained with air-liquid interface culture approach under 37° C., 5% CO2 and 95% humidity. hPCLS were cultured in DMEM-F12 (Invitrogen, Cat No. 11330032) containing 0.2% primocin (Invivogen, Cat No. ant-pm-1) and 1% insulin-transferrin-selenium (ITS-G; Invitrogen, Cat No. 41400045), after initial acclimation in acclimation media, including culture media supplemented with 1% antibiotic antimycotic solution (Invitrogen, Cat No. 15240062), 2 mM Hydrocortisone (Millipore Sigma,) and 5 mg/ml 2-phospho-L-abscorbic acid trisodium salt (Millipore Sigma, Cat No. 49752-10G) for 3 days. Slices of tissue were flatly grown in the tissue culture inserts with 0.4 μm pores of a 12-well plate (StemCell Technologies, Cat No. 1001027), supplemented with 100 μl culture media in the apical side containing PCLSs, and 900 μL culture media in the basal compartment. Media were changed every 48 hours. hPCLS were treated and randomly assigned in replicates of 6-8 per condition 7 days after recovery from cryopreservation. […] IPF donor PCLS were collected at day 8 for subsequent RNA isolation and gene expression quantification. […]

| IC50 [1] [nM] | Structure (SMILES) | secreted fibronectin (lung fibronectin content) [2] |
| --- | --- | --- |
| < 100 | COc1ccc(-c2nc3sc4c(O)c(Cl)ccc4c3c(=O)n2Cc2cnco2)c(C2CC2)c1 [Example 26, 7-chloro-2-(2-cyclopropyl-4-methoxyphenyl)-8-hydroxy-3-(oxazol-5-ylmethyl)benzo[4,5]thieno[2,3-d]pyrimidin-4(3H)-one] | decreased |
| < 100 | CS(=O)(=O)c1ccc(-c2nc3sc4c(O)c(Cl)ccc4c3c(=O)n2Cc2cnc(C(F)(F)F)nc2)c(C2CC2)c1 [Example 64, 7-chloro-2-(2-cyclopropyl-4-(methylsulfonyl)phenyl)-8-hydroxy-3-((2-(trifluoromethyl)pyrimidin-5-yl)methyl)benzo[4,5]thieno[2,3-d]pyrimidin-4(3H)-one] |  |
